The target in test [1] is Substance-P receptor (Homo sapiens, UniProt P25103). The experiment in a line: Binding affinity towards Tachykinin receptor 1 in CHO cells using [3H]-Sar SP as radioligand. Type of test: cell-based.
Test [2] deals with T1, Substance-K receptor (Homo sapiens, UniProt P21452).
T1 sequence (P21452 whole entry): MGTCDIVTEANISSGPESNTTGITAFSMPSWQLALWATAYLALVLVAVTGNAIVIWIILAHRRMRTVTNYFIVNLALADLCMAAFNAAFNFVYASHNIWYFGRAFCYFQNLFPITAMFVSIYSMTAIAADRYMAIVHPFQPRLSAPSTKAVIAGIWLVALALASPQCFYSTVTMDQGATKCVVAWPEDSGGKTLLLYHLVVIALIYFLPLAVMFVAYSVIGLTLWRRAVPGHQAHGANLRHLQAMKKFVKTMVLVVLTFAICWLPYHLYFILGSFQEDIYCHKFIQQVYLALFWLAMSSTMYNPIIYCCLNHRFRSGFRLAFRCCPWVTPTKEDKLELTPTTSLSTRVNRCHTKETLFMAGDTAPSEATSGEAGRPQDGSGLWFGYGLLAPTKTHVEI
Kind of test: Binding affinity towards Tachykinin receptor 2 in CHO cells using [3H]-neurokinin A as radioligand. Format: cell-based.

Test [3] addresses T2, Substance-K receptor (Homo sapiens) (UniProt P21452).
T2 sequence (whole entry): T1 sequence (P21452 whole entry)
Conditions: 0.1 uM.
Description: Inhibitory activity against Tachykinin receptor 2 at a concentration of 0.1 uM

Test [4] concerns the target T2, Substance-K receptor (Homo sapiens). Conditions: 1 uM.
Description: Inhibitory activity against Tachykinin receptor 2 at a concentration of 1 uM

Chain of Substance-P receptor (P25103 whole entry): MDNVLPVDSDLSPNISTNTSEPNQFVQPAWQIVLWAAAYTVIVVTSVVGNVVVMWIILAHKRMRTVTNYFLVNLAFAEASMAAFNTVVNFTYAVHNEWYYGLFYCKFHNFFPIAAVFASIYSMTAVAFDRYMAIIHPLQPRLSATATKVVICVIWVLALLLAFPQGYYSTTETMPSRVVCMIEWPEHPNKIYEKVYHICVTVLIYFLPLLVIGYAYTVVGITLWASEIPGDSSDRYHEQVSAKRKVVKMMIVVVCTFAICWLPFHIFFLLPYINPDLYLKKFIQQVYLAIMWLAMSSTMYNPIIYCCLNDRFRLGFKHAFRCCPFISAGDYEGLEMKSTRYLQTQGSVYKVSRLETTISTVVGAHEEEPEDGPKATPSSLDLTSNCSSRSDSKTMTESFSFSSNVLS

Consider `NC(=O)CNC(COCc1cc(C(F)(F)F)cc(C(F)(F)F)c1)C(CCN1CCC(O)(c2ccccc2)CC1)c1ccc(Cl)c(Cl)c1` (configuration not stated), for which the Ki (usually a measure of affinity in units of concentration, obtained from inhibition or displacement) in test [1] is 4 nM; in test [2] it was 34 nM.
For `CO/N=C(\COCc1cc(C(F)(F)F)cc(C(F)(F)F)c1)C(CCN1CCC(O)(c2ccccc2)CC1)c1ccc(Cl)c(Cl)c1` (configuration not stated), the Ki in test [1] came to 25 nM; in test [2], 21 nM.
Turning to `NC(=O)CN[C@@H](COCc1cc(C(F)(F)F)cc(C(F)(F)F)c1)[C@H](CCN1CCC(O)(c2ccccc2)CC1)c1ccc(Cl)c(Cl)c1`, the values for the Ki in test [1] and in test [2] were 9 nM and 34 nM, respectively.
As to `O/N=C(/COCc1cc(C(F)(F)F)cc(C(F)(F)F)c1)C(CCN1CCC(O)(c2ccccc2)CC1)c1ccc(Cl)c(Cl)c1` (configuration not stated), the Ki turned out to be 34 nM in test [1] and 358 nM in test [2].
`NC(=O)CN[C@H](COCc1cc(C(F)(F)F)cc(C(F)(F)F)c1)[C@@H](CCN1CCC(O)(c2ccccc2)CC1)c1ccc(Cl)c(Cl)c1`: in test [3], the inhibition (in general, how much of the control response was suppressed) was 10%. In addition, in test [1], the affinity corresponds to a Ki of 5 nM.
For the compound `NC(=O)CN[C@H](COCc1cc(C(F)(F)F)cc(C(F)(F)F)c1)C(c1ccccc1)c1ccccc1`, the Ki in test [1] amounted to 0.9 nM.
In turn, `CO/N=C(/COCc1cc(C(F)(F)F)cc(C(F)(F)F)c1)C(CCN1CCC(O)(c2ccccc2)CC1)c1ccc(Cl)c(Cl)c1` (configuration not stated) gave an inhibition in test [4] of 35%. Moreover, in test [1], the Ki was determined as 25 nM.
Take `CO/N=C(\COCc1cc(C(F)(F)F)cc(C(F)(F)F)c1)[C@@H](CCN1CCC(O)(c2ccccc2)CC1)c1ccc(Cl)c(Cl)c1`: the Ki in test [1] was 33 nM; in test [2], 397 nM.
`NC(=O)CN[C@@H](COCc1cc(C(F)(F)F)cc(C(F)(F)F)c1)[C@@H](CCN1CCC(O)(c2ccccc2)CC1)c1ccc(Cl)c(Cl)c1` gave an inhibition in test [3] of 27%. Besides, the Ki in test [1] was 0.7 nM.
Consider `CC(=O)NC1(c2ccccc2)CCN(CC[C@H](CN(C)C(=O)c2ccccc2)c2ccc(Cl)c(Cl)c2)CC1` [SAREDUTANT], for which the Ki in test [2] came to 0.5 nM.
In the case of `CO/N=C(\COCc1cc(C(F)(F)F)cc(C(F)(F)F)c1)[C@H](CCN1CCC(O)(c2ccccc2)CC1)c1ccc(Cl)c(Cl)c1`, the Ki was determined as 20 nM in test [1] and 7 nM in test [2].
In the same order, the values of `O/N=C(\COCc1cc(C(F)(F)F)cc(C(F)(F)F)c1)C(CCN1CCC(O)(c2ccccc2)CC1)c1ccc(Cl)c(Cl)c1` (configuration not stated) are 24 nM and 122 nM.
